# Measurements reported in US20040181075A1, “Process of making chalcone derivatives” (priority 2002, published 2004).
row,melting point,Structure (SMILES)
1,231 to 232 °C (dec.),"COc1cc(OC)c(-c2cc3ccccc3s2)cc1/C=C/C(=O)c1ccc(C(=O)O)cc1 [Example 3, 4-[(2E)-3-(5-benzo[b]thien-2-yl-2,4-dimethoxyphenyl)-1-oxo-2-propenyl]-benzoic acid]"
2,176 to 178 °C,"COc1cc(OC)c(-c2cc3ccccc3s2)cc1/C=C\C(=O)c1ccc(C(=O)O)cc1 [Example 66, 4-[(2Z)-3-(5-benzo[b]thien-2-yl-2,4-dimethoxyphenyl)-1-oxo-2-propenyl]-benzoic acid]"
